Data as given in paper PMC2848328 (The Journal of biological chemistry, 2006).

Molecular target: T1, AMAN-2 (F58H1.1; Golgi α-mannosidase II) (Caenorhabditis elegans, UniProt Q2PJ74)
T1 sequence (Q2PJ74 125-1145): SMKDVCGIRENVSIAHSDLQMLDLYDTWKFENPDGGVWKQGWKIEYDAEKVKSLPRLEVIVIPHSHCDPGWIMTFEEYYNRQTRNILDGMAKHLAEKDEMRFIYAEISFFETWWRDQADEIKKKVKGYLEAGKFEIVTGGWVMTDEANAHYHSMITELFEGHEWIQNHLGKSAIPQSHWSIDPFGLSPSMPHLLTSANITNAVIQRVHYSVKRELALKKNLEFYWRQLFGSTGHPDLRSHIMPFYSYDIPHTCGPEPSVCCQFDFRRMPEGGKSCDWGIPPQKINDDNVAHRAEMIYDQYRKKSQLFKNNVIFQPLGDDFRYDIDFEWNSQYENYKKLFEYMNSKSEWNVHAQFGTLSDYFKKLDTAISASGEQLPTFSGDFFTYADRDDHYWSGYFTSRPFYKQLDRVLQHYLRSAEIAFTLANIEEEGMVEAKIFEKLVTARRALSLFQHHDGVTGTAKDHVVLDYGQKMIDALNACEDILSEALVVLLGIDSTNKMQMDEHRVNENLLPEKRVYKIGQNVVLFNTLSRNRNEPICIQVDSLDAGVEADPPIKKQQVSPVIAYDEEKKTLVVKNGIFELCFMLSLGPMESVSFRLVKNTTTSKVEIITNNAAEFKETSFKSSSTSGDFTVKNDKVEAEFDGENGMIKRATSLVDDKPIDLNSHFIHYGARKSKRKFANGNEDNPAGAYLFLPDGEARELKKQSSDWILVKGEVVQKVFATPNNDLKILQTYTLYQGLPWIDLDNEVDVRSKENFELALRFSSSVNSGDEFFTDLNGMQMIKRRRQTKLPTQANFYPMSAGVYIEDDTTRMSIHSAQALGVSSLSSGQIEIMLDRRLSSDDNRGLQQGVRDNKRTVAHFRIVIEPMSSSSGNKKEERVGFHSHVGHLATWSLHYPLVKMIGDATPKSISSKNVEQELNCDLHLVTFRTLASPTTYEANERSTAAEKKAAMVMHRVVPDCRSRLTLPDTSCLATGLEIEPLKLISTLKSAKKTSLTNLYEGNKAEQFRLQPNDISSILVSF
Assay: inhibition of p-nitrophenyl-α-mannoside hydrolysis, A405
Type: biochemical
Settings: read-out: % inhibition at 1 mM

inhibition at 1000 µM: ~45%
SMILES: OC[C@H]1NC[C@@H](O)[C@@H](O)[C@@H]1O [deoxymannojirimycin]
